Laboratory results taken from EP4667458A1 (Kanaph Therapeutics Inc., priority 2023, dated 2024).

Target: T1, KRAS^G12C::SOS1 (Homo sapiens, UniProt Q07889)
T1 sequence (Q07889 1-1333): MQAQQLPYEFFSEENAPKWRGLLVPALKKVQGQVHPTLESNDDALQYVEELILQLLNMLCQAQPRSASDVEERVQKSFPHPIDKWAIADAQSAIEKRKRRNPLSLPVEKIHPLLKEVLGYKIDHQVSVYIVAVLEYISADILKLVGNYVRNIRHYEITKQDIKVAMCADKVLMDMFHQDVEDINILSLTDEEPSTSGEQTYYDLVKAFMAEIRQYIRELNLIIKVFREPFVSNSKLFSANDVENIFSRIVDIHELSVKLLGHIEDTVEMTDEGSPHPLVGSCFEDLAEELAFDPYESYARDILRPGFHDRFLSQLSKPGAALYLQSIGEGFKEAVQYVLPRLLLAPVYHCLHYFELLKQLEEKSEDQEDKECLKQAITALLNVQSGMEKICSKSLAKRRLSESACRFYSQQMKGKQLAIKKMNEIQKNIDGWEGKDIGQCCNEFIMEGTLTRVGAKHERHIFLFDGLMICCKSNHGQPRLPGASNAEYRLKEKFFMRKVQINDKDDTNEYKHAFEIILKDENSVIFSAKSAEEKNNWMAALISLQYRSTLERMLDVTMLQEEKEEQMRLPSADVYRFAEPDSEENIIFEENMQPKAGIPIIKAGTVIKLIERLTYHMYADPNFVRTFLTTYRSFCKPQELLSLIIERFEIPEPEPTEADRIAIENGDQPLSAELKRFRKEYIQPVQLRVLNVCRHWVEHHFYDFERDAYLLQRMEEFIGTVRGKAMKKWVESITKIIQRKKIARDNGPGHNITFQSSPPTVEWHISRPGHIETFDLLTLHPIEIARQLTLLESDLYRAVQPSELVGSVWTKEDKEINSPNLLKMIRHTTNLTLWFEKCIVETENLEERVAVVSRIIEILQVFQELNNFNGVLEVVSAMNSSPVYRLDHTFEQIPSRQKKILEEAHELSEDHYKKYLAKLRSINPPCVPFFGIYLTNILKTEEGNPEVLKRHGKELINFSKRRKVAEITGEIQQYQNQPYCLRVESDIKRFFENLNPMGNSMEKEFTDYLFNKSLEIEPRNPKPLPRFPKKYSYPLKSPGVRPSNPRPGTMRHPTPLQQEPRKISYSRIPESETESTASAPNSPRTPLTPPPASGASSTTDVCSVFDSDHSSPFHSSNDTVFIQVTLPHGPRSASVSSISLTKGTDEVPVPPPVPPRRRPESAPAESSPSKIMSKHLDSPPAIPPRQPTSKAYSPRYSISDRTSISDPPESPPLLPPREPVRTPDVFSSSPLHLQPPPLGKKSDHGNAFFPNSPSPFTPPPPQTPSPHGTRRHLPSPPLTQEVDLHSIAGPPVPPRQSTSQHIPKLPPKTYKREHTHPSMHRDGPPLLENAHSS
Assay: KRAS G12C::SOS1 protein-protein interaction (PPI) inhibition assay (HTRF binding kit)
Protocol: Protein-protein interaction between SOS1 and KRAS^G12C was detected using KRAS G12C/SOS1 binding kit from CISBIO (64KRASG12PEH, CISBIO, FRANCE) according to the manufacturer's assay method. Briefly, the maximum concentration of an inhibitor sample was set to be 3 µM, and the inhibitor sample was diluted 7 times by 1/3, and samples having a total of 8 concentrations were prepared. In HTRF (Homogeneous Time-Resolved Fluorescence) exclusive 96-well low-volume white plate (66PL96005, CISBIO, FRANCE), 2 µL of an inhibitor sample prepared for each concentration, 5 µL of a mixed solution of Tag1-labeled KRAS^G12C protein and GTP diluted with the dilution solution provided by the manufacturer, and 5 µL of Tag2 labeled SOS1 protein were mixed, and added with 8 µL of a diluted solution where anti-Tag1 KRAS^G12C XL665 (HTRF acceptor) labeled antibody and anti-Tag2 SOS1 Terbium cryptate (HTRF donor) labeled antibody were mixed in an equal ratio and incubated at room temperature for 2 h.

Structure (SMILES) | IC50 [nM]
CNCc1cc(Cl)ccc1-c1ccc([C@@H](C)NC(=O)c2ccc(=O)n(-c3ccccc3F)c2)s1 [Example 282, N-[(1R)-1-[5-[4-chloro-2-(methylaminomethyl)phenyl]-2-thienyl]ethyl]-1-(2-fluorophenyl)-6-oxo-pyridine-3-carboxamide] | < 1000
CNCc1ccc(Cl)cc1-c1ccc([C@@H](C)NC(=O)c2ccc(=O)n(-c3ccccc3F)c2)s1 [Example 283, N-[(1R)-1-[5-[5-chloro-2-(methylaminomethyl)phenyl]-2-thienyl]ethyl]-1-(2-fluorophenyl)-6-oxo-pyridine-3-carboxamide] | < 1000
CNCc1ccc(Cl)cc1-c1ccc([C@@H](C)NC(=O)c2ccc(=O)n(-c3cccnc3)n2)s1 [Example 285, N-[(1R)-1-[5-[5-chloro-2-(methylaminomethyl)phenyl]-2-thienyl]ethyl]-6-oxo-1-(3-pyridyl)pyridazine-3-carboxamide] | < 1000
CNCc1ccc(F)cc1-c1ccc([C@@H](C)NC(=O)c2ccc(=O)n(-c3ccccc3F)n2)s1 [Example 286, N-[(1R)-1-[5-[5-fluoro-2-(methylaminomethyl)phenyl]-2-thienyl]ethyl]-1-(2-fluorophenyl)-6-oxo-pyridazine-3-carboxamide] | < 1000
CNCc1ccc(F)cc1-c1ccc([C@@H](C)NC(=O)c2ccc(=O)n(-c3ccccc3F)c2)s1 [Example 287, N-[(1R)-1-[5-[5-fluoro-2-(methylaminomethyl)phenyl]-2-thienyl]ethyl]-1-(2-fluorophenyl)-6-oxo-pyridine-3-carboxamide] | < 1000
CNCc1ccc(F)cc1-c1ccc([C@@H](C)NC(=O)c2ccc(=O)n(-c3cccnc3F)n2)s1 [Example 288, N-[(1R)-1-[5-[5-fluoro-2-(methylaminomethyl)phenyl]-2-thienyl]ethyl]-1-(2-fluoro-3-pyridyl)-6-oxo-pyridazine-3-carboxamide] | < 1000
CCNCc1ccc(F)cc1-c1ccc([C@@H](C)NC(=O)c2ccc(=O)n(-c3cccnc3F)n2)s1 [Example 289, N-[(1R)-1-[5-[2-(ethylaminomethyl)-5-fluorophenyl]-2-thienyl]ethyl]-1-(2-fluoro-3-pyridyl)-6-oxo-pyridazine-3-carboxamide] | < 1000
CNCc1ccccc1-c1ccc([C@@H](C)NC(=O)c2nn(-c3cnn(C)c3)c(=O)c3ccsc23)s1 [Example 290, N-[(1R)-1-[5-[2-(methylaminomethyl)phenyl]-2-thienyl]ethyl]-5-(1-methylpyrazol-4-yl)-4-oxo-thieno[2,3-d]pyridazine-7-carboxamide] | < 1000
CNCc1sccc1-c1cccc([C@@H](C)NC(=O)c2ccc(=O)n(-c3ccccc3F)n2)c1 [Example 291, 1-(2-fluorophenyl)-N-[(1R)-1-[3-[2-(methylaminomethyl)-3-thienyl]phenyl]ethyl]-6-oxo-pyridazine-3-carboxamide] | < 1000
CNCc1ccc(Cl)cc1-c1ccc([C@@H](C)NC(=O)c2ccc(=O)n(-c3cnn(C)c3)n2)s1 [Example 292, (R)-N-(1-(5-(5-chloro-2-((methylamino)methyl)phenyl)thiophen-2-yl)ethyl)-1-(1-methyl-1H-pyrazol-4-yl)-6-oxo-1,6-dihydropyridazine-3-carboxamide] | < 1000
CNCc1cccc(F)c1-c1ccc([C@@H](C)NC(=O)c2ccc(=O)n(-c3cccnc3F)n2)s1 [Example 293, N-[(1R)-1-[5-[2-fluoro-6-(methylaminomethyl)phenyl]-2-thienyl]ethyl]-1-(2-fluoro-3-pyridyl)-6-oxo-pyridazine-3-carboxamide] | < 1000
CNCc1ccsc1-c1cccc([C@@H](C)NC(=O)c2ccc(=O)n(-c3ccccc3F)n2)c1 [Example 294, 1-(2-fluorophenyl)-N-[(1R)-1-[3-[3-(methylaminomethyl)-2-thienyl]phenyl]ethyl]-6-oxo-pyridazine-3-carboxamide] | < 1000
CNCc1ccc(F)cc1-c1ccc([C@@H](C)NC(=O)c2ccc(=O)n(-c3cnn(C)c3)n2)s1 [Example 296, N-[(1R)-1-[5-[5-fluoro-2-(methylaminomethyl)phenyl]-2-thienyl]ethyl]-1-(1-methylpyrazol-4-yl)-6-oxo-pyridazine-3-carboxamide] | < 1000
CNCc1ccc(F)cc1-c1ccc([C@@H](C)NC(=O)c2ccc(=O)n(-c3cccc(C(=O)N(C)C)c3F)n2)s1 [Example 297, 1-[3-(dimethylcarbamoyl)-2-fluoro-phenyl]-N-[(1R)-1-[5-[5-fluoro-2-(methylaminomethyl)phenyl]-2-thienyl]ethyl]-6-oxo-pyridazine-3-carboxamide] | < 1000
CNCc1ccccc1-c1ccc([C@@H](C)NC(=O)c2ccc(=O)n(-c3ccccc3F)n2)s1 [Example 298, 1-(2-fluorophenyl)-N-[(1R)-1-[5-[2-(methylaminomethyl)phenyl]-2-thienyl]ethyl]-6-oxo-pyridazine-3-carboxamide] | < 1000
C[C@@H](NC(=O)c1ccc(=O)n(-c2ccccc2F)n1)c1ccc(-c2ccccc2CO)s1 [Example 299, 1-(2-fluorophenyl)-N-[(1R)-1-[5-[2-(hydroxymethyl)phenyl]-2-thienyl]ethyl]-6-oxo-pyridazine-3-carboxamide] | 1000 to 10000
C[C@@H](NC(=O)c1ccc(=O)n(-c2ccccc2F)n1)c1ccc(-c2cc(F)ccc2CNCCO)s1 [Example 300, N-[(1R)-1-[5-[5-fluoro-2-[(2-hydroxyethylamino)methyl]phenyl]-2-thienyl]ethyl]-1-(2-fluorophenyl)-6-oxo-pyridazine-3-carboxamide] | < 1000
CNCc1ccc(Cl)cc1-c1ccc([C@@H](C)NC(=O)c2ccc(=O)n(C3CCN(C(C)=O)CC3)n2)s1 [Example 301, 1-(1-acetyl-4-piperidyl)-N-[(1R)-1-[5-[5-chloro-2-(methylaminomethyl)phenyl]-2-thienyl]ethyl]-6-oxo-pyridazine-3-carboxamide] | < 1000
CNCc1ccc(F)cc1-c1ccc([C@@H](C)NC(=O)c2ccc(=O)n(-c3cccnc3NC)n2)s1 [Example 302, N-[(1R)-1-[5-[5-fluoro-2-(methylaminomethyl)phenyl]-2-thienyl]ethyl]-1-[2-(methylamino)-3-pyridyl]-6-oxo-pyridazine-3-carboxamide] | < 1000
C[C@@H](NC(=O)c1ccc(=O)n(-c2ccccc2F)n1)c1cccc(-n2ccccc2=O)c1 [Example 303, 1-(2-fluorophenyl)-6-oxo-N-[(1R)-1-[3-(2-oxo-1-pyridyl)phenyl]ethyl]pyridazine-3-carboxamide] | > 10000
C[C@@H](NC(=O)c1ccc(=O)n(-c2ccccc2F)n1)c1cccc(-n2ccc(=O)cc2)c1 [Example 304] | > 10000
C[C@@H](NC(=O)c1ccc(=O)n(-c2ccccc2F)n1)c1cccc(Oc2cccnc2)c1 [Example 305, 1-(2-fluorophenyl)-6-oxo-N-[(1R)-1-[3-(3-pyridyloxy)phenyl]ethyl]pyridazine-3-carboxamide] | > 10000
C[C@@H](NC(=O)c1ccc(=O)n(-c2ccccc2F)n1)c1cccc(Oc2ccccc2)c1 [Example 306, 1-(2-fluorophenyl)-6-oxo-N-[(1R)-1-(3-phenoxyphenyl)ethyl]pyridazine-3-carboxamide] | > 10000
C[C@@H](NC(=O)c1nn(-c2cnn(C)c2)c(=O)c2cc[nH]c12)c1cc(N)cc(C(F)(F)F)c1 [Example 307, N-[(1R)-1-[3-amino-5-(trifluoromethyl)phenyl]ethyl]-5-(1-methylpyrazol-4-yl)-4-oxo-1H-pyrrolo[2,3-d]pyridazine-7-carboxamide] | < 1000
C[C@@H](NC(=O)c1nn(-c2ccccc2)c(=O)c2cc[nH]c12)c1cc(N)cc(C(F)(F)F)c1 [Example 308, N-[(1R)-1-[3-amino-5-(trifluoromethyl)phenyl]ethyl]-4-oxo-5-phenyl-1H-pyrrolo [2,3-d] pyridazine-7-carboxamide] | < 1000
C[C@@H](NC(=O)c1nn(-c2ccccc2F)c(=O)c2ccsc12)c1cc(N)cc(C(F)(F)F)c1 [Example 309, N-[(1R)-1-[3-amino-5-(trifluoromethyl)phenyl]ethyl]-5-(2-fluorophenyl)-4-oxo-thieno[2,3-d]pyridazine-7-carboxamide] | < 1000
